In ChEMBL document CHEMBL5137015, “Design, synthesis, and evaluation of a novel series of mono-indolylbenzoquinones derivatives for the potential treatment of breast cancer” (Eur J Med Chem, 2022):
Activity calls are given as the source filed them. The calls are words filed in the database; no cut-off is given here.

Legend:
MDA-MB-231 [1] = assay: Induction of apoptosis in human MDA-MB-231 cells assessed as increase in Bax protein expression at 1 uM incubated for 24 hrs by Western blot analysis; assay type: functional, cell-based
MDA-MB-231 [2] = assay: Induction of ROS production in human MDA-MB-231 cells assessed as increase in fluorescence intensity at 1 uM incubated for 24 hrs by DCFH-DA staining based fluorescence analysis; assay type: functional, cell-based
MDA-MB-231 [3] = assay: Induction of apoptosis in human MDA-MB-231 cells assessed as increase in Bcl-2 protein expression at 1 uM incubated for 24 hrs by Western blot analysis; assay type: functional, cell-based
MDA-MB-231 [4] = assay: Induction of apoptosis in human MDA-MB-231 cells assessed as increase in pro-caspase 3 level at 100 nM incubated for 48 hrs; assay type: functional, cell-based
MDA-MB-231 [5] = assay: Induction of apoptosis in human MDA-MB-231 cells assessed as increase in catalase level at 100 nM incubated for 48 hrs; assay type: functional, cell-based
[6] = Toxicity in Balb/c mouse implanted with mouse 4T1 cells assessed as effect on body weight at 50 mg/kg, ip administered every two days for 14 days; assay type: organism-based; conditions: in vivo, 336 h, time 14 day
MDA-MB-231 [7] = assay: Induction of apoptosis in human MDA-MB-231 cells assessed as increase in caspase 3 expression at 0.5 to 3 times of IC50 concentration by Western blot analysis; assay type: functional, cell-based
4T1 [8] = assay: Antitumor activity aginst mouse 4T1 cells implanted in Balb/c mouse assessed as nuclei shrinkage at 50 mg/kg administered intratumorally every four days for 14 days; assay type: functional, organism-based; conditions: route it(Intratumoral), time 14.0 day
MDA-MB-231 [9] = assay: Induction of apoptosis in human MDA-MB-231 cells assessed as decrease in Bcl-2/Bax ratio at 0.5 to 3 times of IC50 concentration by Western blot analysis; assay type: functional, cell-based
MDA-MB-231 [10] = assay: Induction of apoptosis in human MDA-MB-231 cells assessed as increase in HTRA2/omi level at 100 nM incubated for 48 hrs; assay type: functional, cell-based
[11] = Drug metabolism in Balb/c mouse tumor implanted with mouse 4T1 cells assessed as dechlorination of parent compound causing metabolite formation by LC-MS analysis; assay type: ADME, tissue-based, Neoplasm
MDA-MB-231 [12] = assay: Induction of apoptosis in human MDA-MB-231 cells assessed as apoptotic cells at 10 uM incubated for 24 hrs by Annexin V-FITC/propidium iodide staining based flow cytometric method (reference value: 5.68%); assay type: functional
[13] = Acute toxicity in mouse assessed as animal death at 5000 mg/kg, po; assay type: organism-based; conditions: in vivo
[14] = Toxicity in Balb/c mouse implanted with mouse 4T1 cells assessed as effect on body weight at 50 mg/kg administered intratumorally every four days for 14 days; assay type: organism-based; conditions: in vivo, other, 336 h, route it(Intratumoral), time 14 day
4T1 [15] = assay: Antitumor activity against mouse 4T1 cells implanted in Balb/c mouse assessed as nuclei disappearance at 50 mg/kg administered intratumorally every four days for 14 days in the presence of liquid cyanoacrylate; assay type: functional, organism-based; conditions: route it(Intratumoral), time 14.0 day
4T1 [16] = assay: Antitumor activity against mouse 4T1 cells implanted in Balb/c mouse assessed as tumor growth inhibition at 50 mg/kg administered intratumorally every four days for 14 days in the presence of liquid cyanoacrylate relative to control; assay type: functional; conditions: 4T1, 336 h, route it(Intratumoral), time 14 day, read-out: TGI
4T1 [17] = assay: Antitumor activity against mouse 4T1 cells xenografted in Balb/c mouse assessed as shrinkage of nucleus at 200 mg/kg administered topically over the tumor surface every two days for 14 days in the presence of cyanoacrylate; assay type: functional, organism-based; conditions: route top, time 14.0 day

Cc1[nH]c2ccccc2c1C1=C(Cl)C(=O)C(Cl)=C(N2CCOCC2)C1=O
Activity (MDA-MB-231 [1]): Active | Activity (MDA-MB-231 [2]): Active | Activity (MDA-MB-231 [3]): Active | Activity (MDA-MB-231 [4]): Active | Activity (MDA-MB-231 [5]): Active | Activity [6]: Non-Toxic | Activity (MDA-MB-231 [7]): Active | Activity (4T1 [8]): Active | Activity (MDA-MB-231 [9]): Active | Activity (MDA-MB-231 [10]): Active | Drug metabolism [11]: Metabolite_Detected | Activity (MDA-MB-231 [12]): 31.69% | Activity [13]: Non-Toxic | Activity [14]: Non-Toxic | Activity (4T1 [15]): Active | inhibition in vivo at 50 mg/kg (4T1 [16]): 49.8% | Activity (4T1 [17]): Active
